Measured values as given in EP0083750A1, “Antimycotic azolyl butanols” (BAYER AG, priority 1981, dated 1983).
Converted amounts (≈) assume the structure as drawn. Counter-ions that a name gives are not always drawn.

Legend:
Assay type in all cases: cell-based
[1] = tested on: Candida albicans; assay: Antimycotic in-vitro activity, serial dilution test (MIC); conditions: Reihenverdünnungstest, 5 x 10^4 Keimen/ml Substrat, Fleischextrakt-Traubenzucker-Bouillon, 20°C, 24 bis 96 Stunden, read-out: MHK-Werte in γ/ml Nährmedium, Candida albicans
Experimental: (§1) Versuchsbeschreibung: • Die in-vitro-Prüfungen wurden im Reihenverdünnungstest mit Keiminokula von durchschnittlich 5 x 10^4 Keimen/ml Substrat durchgeführt. Als Nährmedium dienten • a) für Dermatophyten und Schimmelpilze: Sabourand's milieu d'epreuve • b) für Hefen: • Fleischextrakt-Traubenzucker-Bouillon.
(§2) Die Bebrütungstemperatur betrug 20°C, die Bebrütungsdauer lag bei 24 bis 96 Stunden bei Hefen und 96 Stunden bei Dermatophyten und Schimmelpilzen.

[2] = tested on: Aspergillus fumig.; assay: as above; conditions: 96 h, Reihenverdünnungstest, 5 x 10^4 Keimen/ml Substrat, Sabourand's milieu d'epreuve, 20°C, 96 Stunden, read-out: MHK-Werte in γ/ml Nährmedium, Aspergillus fumig.
Experimental: as §1, §2

[3] = tested on: Trichophyton mentagr.; assay: as above; conditions: 96 h, Reihenverdünnungstest, 5 x 10^4 Keimen/ml Substrat, Sabourand's milieu d'epreuve, 20°C, 96 Stunden, read-out: MHK-Werte in γ/ml Nährmedium, Trichophyton mentagr.
Experimental: as §1, §2

[4] = tested on: Torulopsis glabrata; assay: as above; conditions: Nakaseomyces glabratus; Reihenverdünnungstest, 5 x 10^4 Keimen/ml Substrat, Fleischextrakt-Traubenzucker-Bouillon, 20°C, 24 bis 96 Stunden; read-out: MHK-Werte in γ/ml Nährmedium, Torulopsis glabrata
Experimental: as §1, §2

[5] = tested on: Microsporum canis; assay: as above; conditions: 96 h, Reihenverdünnungstest, 5 x 10^4 Keimen/ml Substrat, Sabourand's milieu d'epreuve, 20°C, 96 Stunden, read-out: MHK-Werte in γ/ml Nährmedium, Microsporum canis
Experimental: as §1, §2

[6] = tested on: Dermatophyten, Schimmelpilze, Hefen; assay: Antimycotic in-vitro activity, serial dilution test, overall comparison with prior art; conditions: in-vitro Reihenverdünnungstest
Experimental: as §1, §2

Row | MIC [1] [µg/mL] | MIC [2] [µg/mL] | MIC [3] [µg/mL] | MIC [4] [µg/mL] | MIC [5] [µg/mL] | Structure (SMILES) | antimykotische Wirkung im Vergleich zu den bekannten Verbindungen (A) und (B) [6]
1 | 16 (≈ 43 µM) | 8 (≈ 21.5 µM) | 2 (≈ 5.37 µM) | 32 (≈ 86 µM) | 4 (≈ 10.7 µM) | CCOCC(C)(C)C(O)C(Cc1ccc(Cl)c(Cl)c1)n1cncn1 (centres unmarked) [Beispiel 86] | bessere antimykotische Wirkung
2 | < 1 | 64 (≈ 134 µM) | 4 (≈ 8.36 µM) | 64 (≈ 134 µM) | 2 (≈ 4.18 µM) | CCOC(=O)c1ccc(OC(C)(C)C(O)C(Cc2ccc(Cl)cc2Cl)n2cncn2)cc1 (centres unmarked) [Beispiel 64] | bessere antimykotische Wirkung
3 | < 1 | > 64 | < 1 | 4 (≈ 9.08 µM) | 4 (≈ 9.08 µM) | CC(C)(Oc1ccc(Cl)cc1)C(O)C(Cc1c(Cl)cccc1Cl)n1cncn1 (centres unmarked) [Beispiel 29] | bessere antimykotische Wirkung
4 | 2 (≈ 6.43 µM) | 16 (≈ 51.5 µM) | 8 (≈ 25.7 µM) | 2 (≈ 6.43 µM) | 2 (≈ 6.43 µM) | CC(C)(CSc1ccc(Cl)cc1)C(O)Cn1ccnc1 (centres unmarked) [Beispiel 3, 4-(4-Chlorphenylmercapto)-3,3-dimethyl-1-(imidazol-1-yl)-butan-2-ol] | bessere antimykotische Wirkung
5 | < 1 | < 1 | < 1 | 4 (≈ 9.52 µM) | < 1 | CC(C)(CSc1ccc(Cl)cc1)C(O)C(Cc1ccc(F)cc1)n1cncn1 (centres unmarked) [Beispiel 40] | 
6 | < 1 | 8 (≈ 21.5 µM) | < 1 | 4 (≈ 10.8 µM) | < 1 | CC(C)(Oc1ccc(Cl)cc1)C(O)C(Cc1ccccc1)n1cncn1 (centres unmarked) [Beispiel 26] | bessere antimykotische Wirkung
7 | 16 | 64 | 2 | 64 | 64 | CC(C)(Oc1ccc(Cl)cc1Cl)C(O)C(Cc1ccc(Cl)cc1)n1cncn1 (centres unmarked) [Beispiel 1, 5-(4-Chlorphenyl)-2-(2,4-dichlorphen-oxy)-2-methyl-4-(1,2,4-triazol-1-yl)-pentan-3-ol-hydrochlorid] | bessere antimykotische Wirkung
8 | < 1 | 8 (≈ 21.2 µM) | 2 (≈ 5.29 µM) | 4 (≈ 10.6 µM) | 32 (≈ 84.7 µM) | CC(C)(Oc1ccc(Cl)cc1)C(O)C(CC1CCCCC1)n1cncn1 (centres unmarked) [Beispiel 31] | bessere antimykotische Wirkung
9 | < 1 | > 64 | < 1 | 2 (≈ 5.44 µM) | < 1 | CCCCC(C(O)C(C)(C)CSc1ccc(Cl)cc1)n1cncn1 (centres unmarked) [Beispiel 41] | bessere antimykotische Wirkung
10 | 8 (≈ 21.3 µM) | 8 (≈ 21.3 µM) | 2 (≈ 5.33 µM) | 32 (≈ 85.2 µM) | 8 (≈ 21.3 µM) | CCCCC(C(O)C(C)(C)Oc1ccc(C(=O)OCC)cc1)n1cncn1 (centres unmarked) [Beispiel 62] | bessere antimykotische Wirkung
11 | 32 (≈ 73.3 µM) | < 1 | < 1 | < 1 | 8 (≈ 18.3 µM) | CC(C)(COc1ccc(Br)cc1)C(O)C(CC1CCCCC1)n1cncn1 (centres unmarked) [Beispiel 35] | bessere antimykotische Wirkung
12 | < 1 | 4 (≈ 10 µM) | < 1 | < 1 | < 1 | Cc1ccc(CC(C(O)C(C)(C)COc2ccc(Cl)cc2)n2cncn2)cc1 (centres unmarked) [Beispiel 10] | bessere antimykotische Wirkung
13 | < 1 | 16 (≈ 43 µM) | 4 (≈ 10.7 µM) | 4 (≈ 10.7 µM) | 8 (≈ 21.5 µM) | CCOCC(C)(C)C(O)C(Cc1ccc(Cl)cc1Cl)n1cncn1 (centres unmarked) [Beispiel 85] | bessere antimykotische Wirkung
14 | < 1 | 64 (≈ 147 µM) | < 1 | < 1 | < 1 | CC(C)(CSc1ccc(Cl)cc1)C(O)C(Cc1ccc(Cl)cc1)n1cncn1 (centres unmarked) [Beispiel 38] | bessere antimykotische Wirkung
15 | 32 (≈ 108 µM) | 16 (≈ 54.1 µM) | 16 (≈ 54.1 µM) | > 64 | 8 (≈ 27 µM) | CC(C)(COc1ccc(Cl)cc1)C(O)Cn1cncn1 (centres unmarked) [Beispiel 4] | bessere antimykotische Wirkung
16 | < 1 | 32 (≈ 79.1 µM) | < 1 | 4 (≈ 9.89 µM) | 8 (≈ 19.8 µM) | CC(C)(Cc1ccccc1)C(O)C(Cc1ccc(Cl)cc1Cl)n1cncn1 (centres unmarked) [Beispiel 83] | bessere antimykotische Wirkung
17 | < 1 | 16 (≈ 47.4 µM) | 2 (≈ 5.92 µM) | 4 (≈ 11.8 µM) | 2 (≈ 5.92 µM) | CCCCC(C(O)C(C)(C)Oc1ccc(Cl)cc1)n1cncn1 (centres unmarked) [Beispiel 52] | bessere antimykotische Wirkung
18 | < 1 | 16 (≈ 45 µM) | 4 (≈ 11.3 µM) | 4 (≈ 11.3 µM) | 8 (≈ 22.5 µM) | C=CCC(C(O)C(C)(C)Oc1ccc(Cl)cc1Cl)n1ccnc1 (centres unmarked) [Beispiel 66] | bessere antimykotische Wirkung
19 | < 1 | 32 (≈ 60.5 µM) | < 1 | 4 (≈ 7.56 µM) | 8 (≈ 15.1 µM) | CC(C)(COc1ccc(Br)cc1)C(O)C(CCOc1ccc(Cl)cc1Cl)n1cncn1 (centres unmarked) [Beispiel 45] | bessere antimykotische Wirkung
20 | 4 (≈ 11.2 µM) | 8 (≈ 22.5 µM) | 2 (≈ 5.61 µM) | 32 (≈ 89.8 µM) | 2 (≈ 5.61 µM) | C=CCC(C(O)C(C)(C)Oc1ccc(Cl)cc1Cl)n1cncn1 (centres unmarked) [Beispiel 53] | bessere antimykotische Wirkung
21 | < 1 | 64 (≈ 190 µM) | < 1 | 16 (≈ 47.6 µM) | < 1 | CC(C)(COc1ccc(-c2ccccc2)cc1)C(O)Cn1ccnc1 (centres unmarked) [Beispiel 96] | bessere antimykotische Wirkung
22 | 2 (≈ 5.4 µM) | < 1 | < 1 | 8 (≈ 21.6 µM) | 2 (≈ 5.4 µM) | CCCCC(C(O)C(C)(C)Cc1ccc(Cl)cc1Cl)n1cncn1 (centres unmarked) [Beispiel 81] | bessere antimykotische Wirkung
23 | 2 (≈ 5.92 µM) | 8 (≈ 23.7 µM) | < 1 | 16 (≈ 47.4 µM) | 8 (≈ 23.7 µM) | CCOCC(C)(C)C(O)C(Cc1ccc(Cl)cc1)n1cncn1 (centres unmarked) [Beispiel 42] | bessere antimykotische Wirkung
24 | > 64 | > 64 | < 1 | 64 (≈ 135 µM) | 8 (≈ 16.8 µM) | CC(C)(Oc1ccc(Cl)cc1Cl)C(O)C(Cc1ccc(Cl)cc1Cl)n1cncn1 (centres unmarked) [Beispiel 25] | bessere antimykotische Wirkung
